The record followed here is article PMC10709440, “High-throughput ligand profile characterization in novel cell lines expressing seven heterologous insect olfactory receptors for the detection of volatile plant biomarkers” (Scientific Reports, 2023).

Assay [1] has as its target T1, Drosophila OR71a (Drosophila melanogaster, UniProt Q9VUK5).
T1 construct: expressed in transfected cells
T1 sequence (Q9VUK5 1-378): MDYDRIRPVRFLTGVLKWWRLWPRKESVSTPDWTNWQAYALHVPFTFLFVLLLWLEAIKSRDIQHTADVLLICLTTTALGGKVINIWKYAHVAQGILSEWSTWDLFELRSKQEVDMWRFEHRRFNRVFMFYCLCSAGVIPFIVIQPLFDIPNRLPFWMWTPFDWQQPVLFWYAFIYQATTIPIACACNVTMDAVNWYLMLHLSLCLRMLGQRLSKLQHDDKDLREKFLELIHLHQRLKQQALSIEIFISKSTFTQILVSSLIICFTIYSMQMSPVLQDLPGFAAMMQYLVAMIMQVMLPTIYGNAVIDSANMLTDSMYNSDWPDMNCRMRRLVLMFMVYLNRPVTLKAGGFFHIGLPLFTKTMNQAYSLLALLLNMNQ
T1 sequence (Q9VNB5 1-486 partner): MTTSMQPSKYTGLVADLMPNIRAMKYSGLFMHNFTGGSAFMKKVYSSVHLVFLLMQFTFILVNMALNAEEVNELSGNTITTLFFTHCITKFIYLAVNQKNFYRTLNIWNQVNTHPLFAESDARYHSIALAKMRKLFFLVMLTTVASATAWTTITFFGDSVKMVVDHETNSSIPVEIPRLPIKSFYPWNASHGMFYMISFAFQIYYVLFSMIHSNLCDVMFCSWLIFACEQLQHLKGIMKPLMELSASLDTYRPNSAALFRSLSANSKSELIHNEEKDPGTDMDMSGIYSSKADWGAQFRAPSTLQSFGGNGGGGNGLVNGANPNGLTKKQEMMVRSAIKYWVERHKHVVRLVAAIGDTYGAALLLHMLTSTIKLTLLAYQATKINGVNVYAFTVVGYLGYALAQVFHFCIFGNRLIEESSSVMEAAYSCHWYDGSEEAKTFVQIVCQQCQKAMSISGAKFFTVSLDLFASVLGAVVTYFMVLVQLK
The assay is described as follows: Calcium ion fluorescence (GCaMP6) assay, OR71a stable HEK293 cell line. In kind it is cell-based. The note with it: for activation at 1 µM / activation at 10 µM / activation at 100 µM: HEK293, read-out: OR71a response (VUAA1-normalized response); for Average response / OR71a response (VUAA1-normalized) at 1 μM / OR71a response (VUAA1-normalized) at 10 μM / OR71a response (VUAA1-normalized) at 100 μM: OR71a cell line; for Average response: VUAA1-normalized response, mean of biological replicates. The protocol:
(§1) These VUAA1 normalized ∆F values were used to compare the different receptors and ligands.
(§2) The concentration-dependent effect of the reference ligands on their cognate cell lines was examined in more detail. Twelve different ligand concentrations were measured on each cell line in an overall 0.01 μM to 100 μM concentration range with 5 repetitions with three technical replicates each time.
(§3) Twelve thousand to 18,000 cells were plated into each well of a black wall, transparent bottom 384-well microplate (Greiner) 48 h or 72 h before the measurements and were simultaneously treated with 1 μg/mL doxycycline. […] The plate has 24 columns, thus we could record responses in up to eight different cell lines in each plate. On the day of the experiment, the growth medium was replaced with 20 µL assay buffer/well (140 mM NaCl, 5 mM KCl, 2 mM CaCl2, 1 mM MgCl2, 5 mM HEPES-Na, 20 mM glucose, pH 7.3, 340 mOsm). […] Baseline fluorescence (F0) was recorded for 5 s, after which 7 µL VOC buffer (140 mM NaCl, 5 mM KCl, 2 mM CaCl2, 1 mM MgCl2, 5 mM HEPES-Na, 31 mM glucose, 0.1% DMSO, pH 7.3, 340 mOsm) was injected into each well in one row and the fluorescence response was recorded for an additional 30 s, at a rate of one read/sec. VOC solutions (VOC buffer with 4× concentration of the final measured VOC concentration, 9 µL/well was injected) were measured on the same wells in a second round with the same protocol. Each individual concentration of a specific VOC sample was recorded in three wells for the same cell line on the same microplate. The raw data were exported in xls file format, F0 and FMAX values, and the fluorescence intensity changes (∆F) were calculated in Excel (Microsoft) (Supplementary file Data summary.xlsx) using the following equation: ΔF=FMAX-F0/F0 (see also Fig. 1C). On each plate, we recorded the response of each cell line to 50 µM VUAA1. The average of these ∆F values of each cell line were used to calculate the VUAA1-normalized values for the rest of the plate, by dividing VOC response ∆F values by the average VUAA1 response ∆F value of the corresponding OR cell line. Each VOC-OR combination was measured three times as technical replicates. […] The average of these replicates were used as one ∆F and VUAA1-normalized ∆F in the following analysis.
(§4) In the next rows we tested the reference VOCs (or other VOCs known to activate the corresponding cell lines), in order to test if all cell lines are responsive. The remaining rows were used to test VOCs with unknown effect.
(§5) The recorded FMAX, F0, ∆F, VUAA1-normalized ∆F values, as well as the OR name, the name of the tested sample, and the final concentration for each well were copied into supplementary file Data summary.xlsx, that was used to summarize all the plates recorded. Here, the averages of the measurements were calculated for each receptor-VOC-concentration combination.

Assay [2] has as its target T2, Drosophila OR98a (Drosophila melanogaster, UniProt Q9VAZ3).
T2 construct: expressed in transfected cells
T2 sequence (Q9VAZ3 1-397): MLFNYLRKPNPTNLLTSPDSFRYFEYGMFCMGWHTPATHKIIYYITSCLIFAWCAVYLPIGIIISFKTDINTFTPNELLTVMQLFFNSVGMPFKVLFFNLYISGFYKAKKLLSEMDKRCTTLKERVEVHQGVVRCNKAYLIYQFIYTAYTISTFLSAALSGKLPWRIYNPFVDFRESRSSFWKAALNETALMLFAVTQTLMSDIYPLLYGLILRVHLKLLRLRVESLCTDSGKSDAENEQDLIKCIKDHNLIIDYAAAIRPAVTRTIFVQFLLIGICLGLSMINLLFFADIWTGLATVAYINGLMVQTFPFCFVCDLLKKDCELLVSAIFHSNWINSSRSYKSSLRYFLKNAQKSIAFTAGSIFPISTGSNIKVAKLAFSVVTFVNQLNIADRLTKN
T2 sequence (Q9VNB5 1-486 partner): T1 sequence (Q9VNB5 1-486 partner)
The assay is described as follows: Calcium ion fluorescence (GCaMP6) assay, OR98a stable HEK293 cell line. Particulars: for OR98a response (VUAA1-normalized) at 1 μM / OR98a response (VUAA1-normalized) at 10 μM / OR98a response (VUAA1-normalized) at 100 μM / Average response: OR98a cell line; for OR98a Average response (VUAA1-normalized): 50 μM VUAA1 = 1; for Average response: average of biological replicates, fraction of VUAA1 response. In kind it is cell-based. How it is done: as §1, §2, §3, §4, §5

The mark [3] stands for this setting: ligand concentration 1 (unit not given), threshold 0.05, below shown as 0.
Where [4] appears, read: ligand concentration 10 (unit not given), threshold 0.05, below shown as 0.
The mark [5] stands for this setting: ligand concentration 100 (unit not given), threshold 0.05, below shown as 0.
Setting [6] is: HEK293, read-out: Average response.
Setting [7] is: HEK293, read-out: OR98a response (VUAA1-normalized response).
Setting [8] is: ligand concentration 1 (unit not given), 0.05 threshold, values below shown as 0.
[9] abbreviates: ligand concentration 10 (unit not given), 0.05 threshold, values below shown as 0.
Setting [10] is: ligand concentration 100 (unit not given), 0.05 threshold, values below shown as 0.
[11] abbreviates: concentration 1, normalized fluorescence change, values below 0.05 threshold given as 0.
[12] abbreviates: concentration 10, normalized fluorescence change, values below 0.05 threshold given as 0.
Setting [13] is: concentration 100, normalized fluorescence change, values below 0.05 threshold given as 0.

Like-named read-outs stand apart in the source and are kept apart here.

In the case of `CC(=O)OCC(C)C` [isobutyl acetate], the activation at 1 µM in assay [1] turned out to be 0%; in assay [2] (setting [6]), 1.85%; in assay [2] (setting [7]), 0%. For the same compound, the activation at 10 µM in assay [1], in assay [2] (setting [6]) and in assay [2] (setting [7]) was 0% in each case. Further, the activation at 100 µM worked out at 0% in assay [1], 6.56% in assay [2] (setting [6]) and 6.56% in assay [2] (setting [7]). Also, the Average response is given as 0.038 in assay [1] (cc. 1 µM), 0.0316 in assay [1] (cc. 10 µM) and 0.00 in assay [1] (cc. 100 µM). In addition, the “DF norm AVERAGE OR71a” value in assay [1] (setting [3]), in assay [1] (setting [4]) and in assay [1] (setting [5]) was 0 throughout. Besides, the “DF norm AVERAGE OR98a” value in assay [2] (setting [3]) is given as 0; in assay [2] (setting [4]), 0; in assay [2] (setting [5]), 0.0656.

For the compound `CCCCCCCCCCC` [undecane], in assay [1] (VOC concentration 1 μM), the “OR71a response (VUAA1-normalized) at 1 μM” value was determined as 0.00. In addition, in assay [1] (VOC concentration 10 μM), the “OR71a response (VUAA1-normalized) at 10 μM” value is on record as 0.00. Also, the “OR71a response (VUAA1-normalized) at 100 μM” value in assay [1] (VOC concentration 100 μM) is listed as 0.00. Besides, the values for the Average response in assay [1] (cc. 1 µM), in assay [1] (cc. 10 µM) and in assay [1] (cc. 100 µM) were 0.00, 0.00 and 0.00847, respectively. Moreover, the “DF norm AVERAGE OR71a” value in assay [1] (setting [8]), in assay [1] (setting [9]) and in assay [1] (setting [10]) was 0 throughout. In assay [2] (setting [6]), the activation at 1 µM stood at 2.26%. In assay [2] (setting [6]), the activation at 10 µM was 0%. Besides, the activation at 100 µM in assay [2] (setting [6]) is 8%. In addition, in assay [2] (VOC concentration 1 μM), the “OR98a response (VUAA1-normalized) at 1 μM” value was 0.00. Besides, the “OR98a response (VUAA1-normalized) at 10 μM” value in assay [2] (VOC concentration 10 μM) was found to be 0.00. Also, the “OR98a response (VUAA1-normalized) at 100 μM” value in assay [2] (VOC concentration 100 μM) was 0.08. The entries for the “DF norm AVERAGE OR98a” value in assay [2] (setting [8]), in assay [2] (setting [9]) and in assay [2] (setting [10]) were 0, 0 and 0.08228, respectively.

As for `CCCC(O)CC` (stereo not drawn) [3-hexanol], the activation at 1 µM in assay [1], in assay [2] (setting [6]) and in assay [2] (setting [7]) was 0% throughout. Also, the activation at 10 µM came to 6% in assay [1], 19% in assay [2] (setting [6]) and 19% in assay [2] (setting [7]). For the same compound, the activation at 100 µM in assay [1] amounted to 0%; in assay [2] (setting [6]), 1.15%; in assay [2] (setting [7]) it was 0%. For the same compound, the Average response in assay [1] (cc. 1 µM) was 0.00; in assay [1] (cc. 10 µM), 0.06; in assay [1] (cc. 100 µM), 0.0155. Further, the “DF norm AVERAGE OR71a” value in assay [1] (setting [11]) turned out to be 0; in assay [1] (setting [12]), 0.06016; in assay [1] (setting [13]) it was 0. For the same compound, the “DF norm AVERAGE OR98a” value in assay [2] (setting [11]) was 0; in assay [2] (setting [12]), 0.194; in assay [2] (setting [13]), 0.

Regarding `CC(C)=CCC/C(C)=C/CC/C(C)=C/CO` [e,e-farnesol], the Average response in assay [1] (cc. 1 µM) amounted to 0.00; in assay [1] (cc. 10 µM), 0.0452; in assay [1] (cc. 100 µM), 0.00; in assay [2] (cc. 1 µM) it was 0.017; in assay [2] (cc. 10 µM), 0.07; in assay [2] (cc. 100 µM), 0.10. Besides, the “OR71a response (VUAA1-normalized response)” value in assay [1] (VOC concentration 1 μM), in assay [1] (VOC concentration 10 μM) and in assay [1] (VOC concentration 100 μM) was 0.00 in each case. The “DF norm AVERAGE OR71a” value in assay [1] (setting [3]), in assay [1] (setting [4]) and in assay [1] (setting [5]) was 0 each time. The results for the “OR98a Average response (VUAA1-normalized)” value in assay [2] (1 μM VOC), in assay [2] (10 μM VOC) and in assay [2] (100 μM VOC) were 0.02, 0.07 and 0.10, respectively. Further, the entries for the “OR98a response (VUAA1-normalized response)” value in assay [2] (VOC concentration 1 μM), in assay [2] (VOC concentration 10 μM) and in assay [2] (VOC concentration 100 μM) were 0.00, 0.07 and 0.10, respectively. The “DF norm AVERAGE OR98a” value in assay [2] (setting [3]) is 0; in assay [2] (setting [4]), 0.07127; in assay [2] (setting [5]), 0.09839.

As for `CC/C=C\CCOC(C)=O` [Z-3-hexenyl acetate], the “OR71a response (VUAA1-normalized) at 1 μM” value in assay [1] (VOC concentration 1 μM) turned out to be 0.00. The “OR71a response (VUAA1-normalized) at 10 μM” value in assay [1] (VOC concentration 10 μM) is given as 0.00. In assay [1] (VOC concentration 100 μM), the “OR71a response (VUAA1-normalized) at 100 μM” value worked out at 0.00. For the same compound, the “OR98a response (VUAA1-normalized) at 1 μM” value in assay [2] (VOC concentration 1 μM) stood at 0.00. In addition, the “OR98a response (VUAA1-normalized) at 10 μM” value in assay [2] (VOC concentration 10 μM) is given as 0.00. Besides, the “OR98a response (VUAA1-normalized) at 100 μM” value in assay [2] (VOC concentration 100 μM) is given as 0.10.
